Results reported in PubChem BioAssay (NCI).
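Assay format: 96-well plates, 48-hour exposure. GI50 is the concentration that inhibits growth by half. At the TGI there is no net growth.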

How the values were obtained:
Test in all cases: DTP human tumour cell line panel, 48 h
OVCAR-8 ovarian = system: OVCAR-8 ovarian
OVCAR-3 ovarian = system: OVCAR-3 ovarian
SK-MEL-5 melanoma = system: SK-MEL-5 melanoma
KM12 colon = system: KM12 colon
OVCAR-4 ovarian = system: OVCAR-4 ovarian
SNB-75 CNS = system: SNB-75 CNS
ACHN renal = system: ACHN renal
HOP-92 NSCLC = system: HOP-92 NSCLC
MDA-MB-231 breast = system: MDA-MB-231 breast
MDA-N = system: MDA-N

SMILES	TGI (OVCAR-8 ovarian) [µM]	TGI (OVCAR-3 ovarian) [µM]	TGI (SK-MEL-5 melanoma) [µM]	TGI (KM12 colon) [µM]	TGI (OVCAR-4 ovarian) [µM]	TGI (SNB-75 CNS) [µM]	TGI (ACHN renal) [µM]	TGI (HOP-92 NSCLC) [µM]	TGI (MDA-MB-231 breast) [µM]	TGI (MDA-N) [µM]	GI50 (OVCAR-8 ovarian) [µM]	GI50 (OVCAR-3 ovarian) [µM]	GI50 (HOP-92 NSCLC) [µM]	GI50 (SK-MEL-5 melanoma) [µM]	GI50 (OVCAR-4 ovarian) [µM]	GI50 (ACHN renal) [µM]	GI50 (MDA-MB-231 breast) [µM]	GI50 (KM12 colon) [µM]	GI50 (SNB-75 CNS) [µM]
NCCN1CCCCCc2ccccc21	> 10	> 10	> 10	> 10	> 10	> 10	> 10												
CCCCI(O)OS(=O)(=O)c1ccc(C)cc1	> 100	> 100	> 100	> 100	> 100	> 100	> 100	> 100	> 100										
COc1ccc(CNc2cnc3ccc(N)cc3n2)cc1	> 100	> 100	> 100	> 100	> 100	> 100	> 100												
COC(=O)CC(=O)OSc1ccccc1		36.4	87.9	> 100	> 100		56.5	67.9											
OCc1cn(Cc2ccccc2)c2ccccc12	46.9	6.96	> 47.2	> 63.8		5.64	> 58.2	22.9	54.5	> 65.5									
COCOc1ccc(C(=O)Oc2cccc3c2OC(C)(C)O3)c(OCOC)c1	> 100	> 100	> 100	91.1		> 100	> 100	> 100	> 100	> 100									
Cc1ccccc1-c1nc2c(N)nc(N)nc2nc1N	> 100	> 100	> 100	> 100	> 100	> 100	> 100		> 100	> 100									
O=C(c1ccco1)N(C(=O)N1CCCCC1)c1ccccc1	> 100	> 100	> 100	> 100			> 100		> 100	> 100									
c1ccc2c(c1)SCCCS2	> 100	> 100	> 100	> 100	> 100	> 100		> 100	> 100	> 100									
COC(=O)CNC(=O)C(CSC(=O)OCC1c2ccccc2-c2ccccc21)NC(=O)CCC(NC(=O)OCC1c2ccccc2-c2ccccc21)C(=O)OC (centres undefined)	30.4	32	> 100		33.4		> 100	30.8	30.2	38.5									
COC(=O)[C@]1(C)CCC[C@@]2(C)C1CC[C@]13C=C(C(C)C)[C@H](CC21)CC3(Cl)C#N (some centres undefined)	> 100	> 100	> 100	> 100	> 100	> 100	> 100	> 100	> 100										
O=[N+]([O-])c1ccc(C[P+]2(c3ccccc3)CCCCC2)cc1	> 100	> 100	> 100	> 100		> 100	> 100												
COc1ccc(C)cc1N1C(=O)C2ON(Cc3ccc(CC(N)=O)cc3)C(c3c4ccccc4c(Cl)c4ccccc34)C2C1=O (centres undefined)	84.6	> 100		29.1	84.6	38.9	75	> 100	49	33									
O=c1c2c3c(sc2[nH]c(=S)n1-c1ccccc1)CCCc1ccc([N+](=O)[O-])cc1-3	> 100	> 100	> 100	> 100	> 100		> 100	76.6	> 100	> 100									
CC(C)Oc1cccc(N2C(n3ccnc3)=Nc3ccncc3S2(=O)=O)c1	40.7	21.9	26.3	49.5	33.7	33.3	21.6	25.7		25.4									
Cc1ccc(-c2cc(-c3ccco3)c(C#N)c(=S)[nH]2)cc1	> 100	> 100	61.9	> 100	> 100	> 100	> 100	> 100	> 100										
CN(C)c1ccc(/C=C(\NC(=O)c2ccccc2)C(=O)NC(CC(=O)O)C(=O)O)cc1 (centres undefined)	> 100	> 100	> 100	> 100	> 100	94.5	> 100	> 100	> 100										
COc1cc2ccc3c4cc(OC)c(OC)cc4c[n+](C)c3c2cc1O	> 100	> 100	> 100	> 100	> 100	> 100	> 76.6	> 100											
Nc1ncnc2c1nnn2C1C=CC(CP(=O)(O)O)C1 (centres undefined)	> 100	> 100	> 100	> 100	> 100		> 100		> 100	> 100									
CN(C)C(=O)C(F)(F)C(c1ccc(F)cc1)C1C(=O)N(C)C(=O)N(C)C1=O (centres undefined)	> 100	> 100	> 100	> 100	> 100	> 100	> 100	> 100	> 100										
CC1=NN(C(=O)Cc2ccccc2)C(=O)/C1=C\c1ccc(O)cc1	> 100	> 100	> 100	> 100	> 100		> 100	> 100											
CCCCCCCCCCCCCCCCCCOc1ccccc1CC(=O)NCC[N+]1(C)CCOCC1	29.9	34.2	16.1		23.3		44.6	3.78	8.34		5.56	4.43	1.03	3	6.42	16	2.76		
S=C(Cc1ccc2c(c1)Sc1ccccc1O2)N1CCOCC1	> 100	> 100		> 100	> 100	60.6	> 100	> 100	> 100	> 100									
Clc1cccc(-c2sc(-c3cccs3)cc2Cc2cccs2)c1	> 10		> 10	> 10	> 10	> 10	> 10	> 10	> 10	> 10									

SMILES	TGI (OVCAR-8 ovarian) [µM]	TGI (OVCAR-3 ovarian) [µM]	TGI (SK-MEL-5 melanoma) [µM]	TGI (KM12 colon) [µM]	TGI (OVCAR-4 ovarian) [µM]	TGI (SNB-75 CNS) [µM]	TGI (ACHN renal) [µM]	TGI (HOP-92 NSCLC) [µM]	TGI (MDA-MB-231 breast) [µM]	TGI (MDA-N) [µM]	GI50 (OVCAR-8 ovarian) [µM]	GI50 (OVCAR-3 ovarian) [µM]	GI50 (HOP-92 NSCLC) [µM]	GI50 (SK-MEL-5 melanoma) [µM]	GI50 (OVCAR-4 ovarian) [µM]	GI50 (ACHN renal) [µM]	GI50 (MDA-MB-231 breast) [µM]	GI50 (KM12 colon) [µM]	GI50 (SNB-75 CNS) [µM]
COc1cccc(C2c3cc4c(cc3OC(O)C2C)OCO4)c1OC (centres undefined)	18.7	17.9	21.8	33.9		32.4	30.8	8.55	42.4	58.3									
O=C(O)c1nc2ccc(C(F)(F)F)cc2[nH]c1=O	> 100	> 100	> 100	> 100	> 100		> 100	> 100	> 100	> 100									
CN(C)CCNC(=O)c1cccc2c1Nc1ccccc1S2	30.2	28	26.3	26.4	26.4	21.3		8.96											
CN1CSC(=S)N(c2cccc(C(F)(F)F)c2)C1	74.5	46.7	31.4	50.7	37.5	> 100	36.5	50.5		91.2									
CSCC[C@@H](NC(=O)[C@H](CC(C)C)NC(=O)C(Cc1cnc[nH]1)NC(=O)CNC(=O)[C@@H](NC(=O)[C@H](C)NC(=O)[C@H](Cc1c[nH]c2ccccc12)NC(=O)[C@H](CCC(N)=O)NC(=O)[C@@H](N)CC(N)=O)C(C)C)C(N)=O (some centres undefined)	> 100	> 100	> 100	> 100	> 100	> 100		> 100											
N#CNC(N)=NCc1ccccc1	> 100	> 100	> 100	> 100	> 100	> 100	> 100	> 100											
CC1CC(N2CCOCC2)=Nc2ccccc2N1C (centres undefined)	> 100	> 100	> 100	> 100	> 100	89.7	> 100		> 100	> 100									
Cc1cc([N+](=O)[O-])c(C)c2c1[nH]c1ccc(Cl)cc12	> 100	> 100	> 100	> 100	> 100	> 100	> 100												
COc1cc2nc(-c3ccc(Cl)cc3)cc(OCCCN3CCOCC3)c2cc1OC	> 100			> 100			> 100	5.17			2.15		1.36			3.64		3.87	
c1c[nH]c(-c2cccc3nsnc23)c1	> 100		> 100	> 100	> 100	> 100	> 100		> 100	> 100									
COc1cc(C)c(CC/C(C)=C/Cc2cc(O)ccc2O)c(C)c1C	> 25	> 25	> 25	> 25	> 25	> 25	> 25	> 25											
Cc1nc2ccc(Cl)cc2c(-n2ccnc2)c1CCn1ccnc1	3.37	> 100	46.4		> 100	72.8	83.6	57.8	48.9	84.7									
Cc1nc(N)c(N2CCN(C#N)CC2)c(=O)[nH]1	> 100	> 100		> 100		> 100	> 100		> 100	> 100									
CN(CCN1CCCC1)C1CCc2cc(Cl)c(Cl)cc2C1 (centres undefined)	30.8	32.1	24.8	40.4	51.1		30.5		34.7	26.2									
OCc1ccc2c(c1)CC1(C2)Cc2cc3c(cc2C1O)CCC3 (centres undefined)	30.9	> 50.9	12	16.5	36.3	16.8	41.3	34.1	13.3										
Cn1c2ccccc2n2c3ncccc3c(=O)c(C#N)c12	23.5	> 100	21.5	> 100	> 100	> 79.9	11.7	> 100	57.1										
CCOC(=O)C1C(c2ccc(Cl)cc2Cl)NC(c2ccc(C)cc2)C(C(=O)OC)S1(=O)=O (centres undefined)	> 100	> 100	> 100	> 100	> 100	> 100	> 100	> 100											
O=C(COc1ccc(OCC(=O)N/N=C/c2ccc(-c3ccc(Cl)cc3Cl)o2)c(Cl)c1)N/N=C/c1ccc(-c2ccc(Cl)cc2Cl)o1	> 100	> 100	> 100	> 100	> 100		> 100		> 100	> 100									
N#Cc1c(-c2ccc([N+](=O)[O-])cc2)cc(-c2ccc(Nc3ccnc4cc(Cl)ccc34)cc2)[nH]c1=O	> 100	> 100		> 100	> 100	> 100	> 100	> 100	> 100										
c1ccc(-c2c(-c3ccccc3)[n+](Cc3ccc4ccccc4c3)c(-c3ccc(-c4nc5ccccc5s4)cc3)n2Cc2ccc3ccccc3c2)cc1	1.12	0.626		0.336	1.12	0.895	0.378				0.151	0.0814			0.0486	0.178		0.13	0.201
COc1ccc2ccc3oc(=O)c(C)cc3c2c1	> 100	> 100	> 100	> 100	> 100	> 100	> 100		> 100	> 100									
O=C(CCc1cc(O)cc(O)c1)NCCc1cc(OCc2ccccc2)cc(OCc2ccccc2)c1	50.6	52.2	25.6	28.1		24.5	15.6	45.3	39.3	35									
CCOC(=O)/C=C/c1nc(C#N)c(N)o1	> 100		> 100	> 100		> 100	> 100	> 100	> 100	> 100									
CC(=O)NNc1nc(C)c(C(=O)NNC(=O)C(=O)Nc2ccc([N+](=O)[O-])cc2[N+](=O)[O-])s1	> 100		> 100	> 100	> 100	> 100	> 100	> 100											
